Measurements as given in the NIST ThermoML archive (doi:10.1016/j.jct.2006.04.007).
“And” between values parts separate entries of the source, which are not always exact repeats. Equal entries are not always repeated. ± gives the expanded uncertainty stated by the source.

Assay: mn = molality of the nth substance listed, in mol/kg
Details: 350 kPa, Liquid; for apparent molar heat capacity: Extra sensitive DSC

CC(=O)N[C@@H](C=O)[C@@H](O)[C@H](O)[C@H](O)CO [N-acetyl-D-glucosamine] + O
mass density (318.15 K, m1 = 0.1999): 1004.1 ± 1 kg/m3
mass density (318.15 K, m1 = 0.3018): 1010.81 ± 1.1 kg/m3
mass density (318.15 K, m1 = 0.5001): 1023.43 ± 1.3 kg/m3
mass density (318.15 K, m1 = 0.7003): 1035.3 ± 1.4 kg/m3
mass density (318.15 K, m1 = 0.958): 1051.87 ± 1.6 kg/m3
apparent molar heat capacity (323.15 K, m1 = 0.0096): 516 ± 100 J/K/mol
apparent molar heat capacity (323.15 K, m1 = 0.0207): 501 ± 46 J/K/mol
apparent molar heat capacity (323.15 K, m1 = 0.03): 483 ± 32 J/K/mol and 488 ± 32 J/K/mol
apparent molar heat capacity (323.15 K, m1 = 0.07): 493.4 ± 14 J/K/mol
apparent molar heat capacity (323.15 K, m1 = 0.1502): 483.4 ± 7.6 J/K/mol
apparent molar heat capacity (323.15 K, m1 = 0.1999): 495.3 ± 6.2 J/K/mol
apparent molar heat capacity (323.15 K, m1 = 0.3018): 498.2 ± 4.8 J/K/mol
apparent molar heat capacity (323.15 K, m1 = 0.5001): 502.3 ± 3.9 J/K/mol
apparent molar heat capacity (323.15 K, m1 = 0.7003): 503 ± 3.5 J/K/mol
apparent molar heat capacity (323.15 K, m1 = 0.958): 484.1 ± 3.3 J/K/mol
apparent molar heat capacity (328.15 K, m1 = 0.0096): 524 ± 99 J/K/mol
apparent molar heat capacity (328.15 K, m1 = 0.0207): 509 ± 46 J/K/mol
apparent molar heat capacity (328.15 K, m1 = 0.03): 490 ± 32 J/K/mol and 497 ± 32 J/K/mol
apparent molar heat capacity (328.15 K, m1 = 0.07): 501.3 ± 14 J/K/mol
apparent molar heat capacity (328.15 K, m1 = 0.1502): 492.7 ± 7.5 J/K/mol
apparent molar heat capacity (328.15 K, m1 = 0.1999): 503.9 ± 6.1 J/K/mol
apparent molar heat capacity (328.15 K, m1 = 0.3018): 506.8 ± 4.8 J/K/mol
apparent molar heat capacity (328.15 K, m1 = 0.5001): 510.8 ± 3.8 J/K/mol
apparent molar heat capacity (328.15 K, m1 = 0.7003): 511.5 ± 3.4 J/K/mol
apparent molar heat capacity (328.15 K, m1 = 0.958): 492.8 ± 3.2 J/K/mol
mass density (328.15 K, m1 = 0.01): 986.41 ± 1.1 kg/m3
mass density (328.15 K, m1 = 0.02): 987.4 ± 1.1 kg/m3
mass density (328.15 K, m1 = 0.03): 987.95 ± 1.1 kg/m3 and 987.87 ± 1.1 kg/m3
mass density (328.15 K, m1 = 0.07): 990.79 ± 1.1 kg/m3
mass density (328.15 K, m1 = 0.1502): 997.12 ± 1 kg/m3
mass density (328.15 K, m1 = 0.1999): 999.48 ± 0.97 kg/m3
mass density (328.15 K, m1 = 0.3018): 1006.12 ± 1.1 kg/m3
mass density (328.15 K, m1 = 0.5001): 1018.64 ± 1.2 kg/m3
mass density (328.15 K, m1 = 0.7003): 1030.41 ± 1.4 kg/m3
mass density (328.15 K, m1 = 0.958): 1046.86 ± 1.6 kg/m3
apparent molar heat capacity (333.15 K, m1 = 0.0096): 532 ± 98 J/K/mol
apparent molar heat capacity (333.15 K, m1 = 0.0207): 517 ± 46 J/K/mol
apparent molar heat capacity (333.15 K, m1 = 0.03): 498 ± 32 J/K/mol and 506 ± 32 J/K/mol
apparent molar heat capacity (333.15 K, m1 = 0.07): 509.2 ± 14 J/K/mol
apparent molar heat capacity (333.15 K, m1 = 0.1502): 501.5 ± 7.4 J/K/mol
apparent molar heat capacity (333.15 K, m1 = 0.1999): 512.1 ± 6.1 J/K/mol
apparent molar heat capacity (333.15 K, m1 = 0.3018): 514.9 ± 4.7 J/K/mol
apparent molar heat capacity (333.15 K, m1 = 0.5001): 518.8 ± 3.8 J/K/mol
apparent molar heat capacity (333.15 K, m1 = 0.7003): 519.6 ± 3.4 J/K/mol
apparent molar heat capacity (333.15 K, m1 = 0.958): 501.1 ± 3.2 J/K/mol
apparent molar heat capacity (338.15 K, m1 = 0.0096): 540 ± 97 J/K/mol
apparent molar heat capacity (338.15 K, m1 = 0.0207): 524 ± 46 J/K/mol
apparent molar heat capacity (338.15 K, m1 = 0.03): 505 ± 32 J/K/mol and 514 ± 32 J/K/mol
apparent molar heat capacity (338.15 K, m1 = 0.07): 517 ± 14 J/K/mol
apparent molar heat capacity (338.15 K, m1 = 0.1502): 510.1 ± 7.4 J/K/mol
apparent molar heat capacity (338.15 K, m1 = 0.1999): 520 ± 6 J/K/mol
apparent molar heat capacity (338.15 K, m1 = 0.3018): 522.8 ± 4.6 J/K/mol
apparent molar heat capacity (338.15 K, m1 = 0.5001): 526.6 ± 3.7 J/K/mol
apparent molar heat capacity (338.15 K, m1 = 0.7003): 527.5 ± 3.3 J/K/mol
apparent molar heat capacity (338.15 K, m1 = 0.958): 509.1 ± 3.2 J/K/mol
apparent molar heat capacity (343.15 K, m1 = 0.0096): 547 ± 97 J/K/mol
apparent molar heat capacity (343.15 K, m1 = 0.0207): 532 ± 45 J/K/mol
apparent molar heat capacity (343.15 K, m1 = 0.03): 511 ± 32 J/K/mol and 523 ± 31 J/K/mol
apparent molar heat capacity (343.15 K, m1 = 0.07): 524.3 ± 14 J/K/mol
apparent molar heat capacity (343.15 K, m1 = 0.1502): 518.1 ± 7.4 J/K/mol
apparent molar heat capacity (343.15 K, m1 = 0.1999): 527.4 ± 6 J/K/mol
apparent molar heat capacity (343.15 K, m1 = 0.3018): 530.1 ± 4.7 J/K/mol
apparent molar heat capacity (343.15 K, m1 = 0.5001): 533.9 ± 3.7 J/K/mol
apparent molar heat capacity (343.15 K, m1 = 0.7003): 535 ± 3.3 J/K/mol
apparent molar heat capacity (343.15 K, m1 = 0.958): 516.5 ± 3.1 J/K/mol
apparent molar heat capacity (348.15 K, m1 = 0.0096): 554 ± 96 J/K/mol
apparent molar heat capacity (348.15 K, m1 = 0.0207): 538 ± 44 J/K/mol
apparent molar heat capacity (348.15 K, m1 = 0.03): 518 ± 31 J/K/mol and 531 ± 31 J/K/mol
apparent molar heat capacity (348.15 K, m1 = 0.07): 531.6 ± 14 J/K/mol
apparent molar heat capacity (348.15 K, m1 = 0.1502): 525.9 ± 7.3 J/K/mol
apparent molar heat capacity (348.15 K, m1 = 0.1999): 534.7 ± 5.9 J/K/mol
apparent molar heat capacity (348.15 K, m1 = 0.3018): 537.2 ± 4.6 J/K/mol
apparent molar heat capacity (348.15 K, m1 = 0.5001): 540.8 ± 3.7 J/K/mol
apparent molar heat capacity (348.15 K, m1 = 0.7003): 542.3 ± 3.2 J/K/mol
apparent molar heat capacity (348.15 K, m1 = 0.958): 523.5 ± 3.1 J/K/mol
mass density (348.15 K, m1 = 0.01): 975.69 ± 1.3 kg/m3
mass density (348.15 K, m1 = 0.02): 976.44 ± 1.3 kg/m3
mass density (348.15 K, m1 = 0.03): 977.15 ± 1.2 kg/m3 and 977.05 ± 1.2 kg/m3
mass density (348.15 K, m1 = 0.07): 979.84 ± 1.2 kg/m3
mass density (348.15 K, m1 = 0.1502): 986.13 ± 1.1 kg/m3
mass density (348.15 K, m1 = 0.1999): 988.48 ± 1.1 kg/m3
mass density (348.15 K, m1 = 0.3018): 995.03 ± 1 kg/m3
mass density (348.15 K, m1 = 0.5001): 1007.4 ± 1.1 kg/m3
mass density (348.15 K, m1 = 0.7003): 1019.03 ± 1.2 kg/m3
mass density (348.15 K, m1 = 0.958): 1035.29 ± 1.4 kg/m3
apparent molar heat capacity (353.15 K, m1 = 0.0096): 561 ± 95 J/K/mol
apparent molar heat capacity (353.15 K, m1 = 0.0207): 545 ± 44 J/K/mol
apparent molar heat capacity (353.15 K, m1 = 0.03): 524 ± 31 J/K/mol and 539 ± 31 J/K/mol
apparent molar heat capacity (353.15 K, m1 = 0.07): 538.7 ± 14 J/K/mol
apparent molar heat capacity (353.15 K, m1 = 0.1502): 533.4 ± 7.3 J/K/mol
apparent molar heat capacity (353.15 K, m1 = 0.1999): 541.6 ± 5.9 J/K/mol
apparent molar heat capacity (353.15 K, m1 = 0.3018): 544.1 ± 4.5 J/K/mol
apparent molar heat capacity (353.15 K, m1 = 0.5001): 547.6 ± 3.7 J/K/mol
apparent molar heat capacity (353.15 K, m1 = 0.7003): 549.6 ± 3.2 J/K/mol
apparent molar heat capacity (353.15 K, m1 = 0.958): 530.3 ± 3 J/K/mol
apparent molar heat capacity (358.15 K, m1 = 0.0096): 568 ± 94 J/K/mol
apparent molar heat capacity (358.15 K, m1 = 0.0207): 552 ± 44 J/K/mol
apparent molar heat capacity (358.15 K, m1 = 0.03): 529 ± 31 J/K/mol and 547 ± 31 J/K/mol
apparent molar heat capacity (358.15 K, m1 = 0.07): 545.8 ± 14 J/K/mol
apparent molar heat capacity (358.15 K, m1 = 0.1502): 540.9 ± 7.2 J/K/mol
apparent molar heat capacity (358.15 K, m1 = 0.1999): 548.3 ± 5.8 J/K/mol
apparent molar heat capacity (358.15 K, m1 = 0.3018): 550.7 ± 4.6 J/K/mol
apparent molar heat capacity (358.15 K, m1 = 0.5001): 554.1 ± 3.6 J/K/mol
apparent molar heat capacity (358.15 K, m1 = 0.7003): 556.9 ± 3.2 J/K/mol
apparent molar heat capacity (358.15 K, m1 = 0.958): 536.9 ± 3.1 J/K/mol
mass density (358.15 K, m1 = 0.01): 969.57 ± 1.4 kg/m3
mass density (358.15 K, m1 = 0.02): 969.97 ± 1.4 kg/m3
mass density (358.15 K, m1 = 0.03): 970.91 ± 1.3 kg/m3 and 970.89 ± 1.3 kg/m3
mass density (358.15 K, m1 = 0.07): 973.66 ± 1.3 kg/m3
mass density (358.15 K, m1 = 0.1502): 979.94 ± 1.2 kg/m3
mass density (358.15 K, m1 = 0.1999): 982.31 ± 1.2 kg/m3
mass density (358.15 K, m1 = 0.3018): 988.83 ± 1.1 kg/m3
mass density (358.15 K, m1 = 0.5001): 1000.87 ± 0.99 kg/m3
mass density (358.15 K, m1 = 0.7003): 1012.6 ± 1.1 kg/m3
mass density (358.15 K, m1 = 0.958): 1028.69 ± 1.3 kg/m3
apparent molar heat capacity (363.15 K, m1 = 0.0096): 574 ± 94 J/K/mol
apparent molar heat capacity (363.15 K, m1 = 0.0207): 558 ± 44 J/K/mol
apparent molar heat capacity (363.15 K, m1 = 0.03): 533 ± 31 J/K/mol and 553 ± 31 J/K/mol
apparent molar heat capacity (363.15 K, m1 = 0.07): 551.5 ± 14 J/K/mol
apparent molar heat capacity (363.15 K, m1 = 0.1502): 547.3 ± 7.1 J/K/mol
apparent molar heat capacity (363.15 K, m1 = 0.1999): 554.3 ± 5.8 J/K/mol
apparent molar heat capacity (363.15 K, m1 = 0.3018): 556.6 ± 4.5 J/K/mol
apparent molar heat capacity (363.15 K, m1 = 0.5001): 559.9 ± 3.6 J/K/mol
apparent molar heat capacity (363.15 K, m1 = 0.7003): 564.4 ± 3.2 J/K/mol
apparent molar heat capacity (363.15 K, m1 = 0.958): 542.9 ± 3 J/K/mol
mass density (368.15 K, m1 = 0.01): 963.46 ± 1.4 kg/m3
mass density (368.15 K, m1 = 0.02): 963.16 ± 1.4 kg/m3
mass density (368.15 K, m1 = 0.03): 964.01 ± 1.4 kg/m3 and 964.02 ± 1.4 kg/m3
mass density (368.15 K, m1 = 0.07): 966.84 ± 1.4 kg/m3
mass density (368.15 K, m1 = 0.1502): 973.05 ± 1.3 kg/m3
mass density (368.15 K, m1 = 0.1999): 975.42 ± 1.3 kg/m3
mass density (368.15 K, m1 = 0.3018): 981.89 ± 1.2 kg/m3
mass density (368.15 K, m1 = 0.5001): 994.17 ± 1.1 kg/m3
mass density (368.15 K, m1 = 0.7003): 1005.68 ± 1.1 kg/m3
mass density (368.15 K, m1 = 0.958): 1021.82 ± 1.3 kg/m3
